{"source": "patent US12661362B2", "about": "“Methods for the prevention and treatment of hearing loss” (Ting Therapeutics LLC, priority 2020, dated 2026)", "key": {"FVB/NJ mice": {"system": "FVB/NJ mice", "assay": "Noise-induced hearing loss in FVB/NJ mice (ABR, DPOAE, wave-I, CtBP2 ribbon count)", "assay_type": "in vivo, mouse", "excerpt": "Now referring to FIGS. 4A-4F Niclosamide attenuates Cisplatin-induced hearing loss in FVB/NJ mice. Mice: Procedures used with mice were approved by the Institutional Animal Care and Use Committee (IACUC) at the Creighton University. For functional assessments including Cisplatin and noise exposure experiments 5 to 7-week-old FVB/NJ mice obtained from Jackson Laboratory (Bar Harbor, ME, USA) were used, with a mix of males and females across experiments. For the Cisplatin and noise studies, FVB/NJ mice were treated with 10 mg/kg Niclosamide, through intraperitoneal (IP) injection. Niclosamide, was dissolved in 1% DMSO in normal saline (0.9% NaCl solution) and vortexed multiple times before injections. Treatment started 24 hours before the Cisplatin or noise-exposure and continued once daily for 3 more days. Cisplatin was injected IP at 30 mg/kg divided into 2 doses per day. Animals were given 1 mL warm sterile normal saline subcutaneously twice a day before and for 7 days after Cisplatin treatment to prevent dehydration.\nNow referring to FIG. 4A, ABR tests were performed 2-3 days before Cisplatin exposure, and 5 days post-Cisplatin exposure. The experimental groups included: Cisplatin and 1% DMSO, Cisplatin and Niclosamide, Niclosamide, only, and age-matched controls receiving normal saline. For the noise experiment, auditory tests were performed 2-3 days prior to noise exposure (paradigm described below), at post-exposure day-1 to monitor temporary threshold shift (TTS) and at post-exposure day-14 to monitor permanent threshold shift (PTS). Experimental groups included: noise-exposure and normal saline, noise-exposure and Niclosamide, Niclosamide-only, and age-matched controls. Following the final auditory function measurements, mice were euthanized, and cochleae were collected for morphological assessment. Based on the results of FVB/NJ ABR/DPOAE threshold variances and power analysis, ten FVB/NJ mice per group (5 of each sex) were used in this study.\nNow referring to FIGS. 5B-5F, mice were injected with 10 mg/kg Niclosamide, per IP injection once per day for four consecutive days: one day before noise exposure (8-16 kHz at 105 dB SPL), the day of the noise exposure, and two days after noise exposure. Control animals received vehicle injections on the same schedule.\nNow referring to FIG. 5B, Noise-induced ABR threshold shifts were obtained by subtraction of the pre-exposure from the post-exposure thresholds.\nNow referring to FIG. 5C, DPOAE amplitudes were measured at f2 frequency ranging from 10 to 80 dB SPL in mice. […] A two-factor ANOVA (group x frequency) was used to compare pre-exposure amplitudes to Day 15 amplitudes.\nNow referring to FIG. 5D, mean wave-I amplitudes at 10, 20, 28.3, and 40 kHz were measured at Day 15 post-noise exposure. Amplitudes from the 10-90 dB SPL stimulus intensity were compared between groups in the pre-noise test using a two-factor ANOVA (group x stimulus level), and no group differences were detected. At Day 15, only the 60-90 dB SPL stimulus levels were used because many of the subjects had no responses below 60 dB SPL.\nNow referring to FIG. 5E to assess the protection of the ribbon synapses, the cochlear samples were immunostained with CtBP2, one of the most abundant proteins in synaptic ribbon bodies (Kujawa S G, et al. 2006). […] Now referring to FIG. 5F, […] hair cell count of ribbon synapses. […] In the same cochleae, OHCs were also counted. […] The frequency region of 16 kHz was used for CtbP2 ribbon count because this has been shown that ribbons are more abundant in this frequency region."}, "A549": {"system": "A549", "assay": "Survival of A549 cells with or without Cisplatin and Niclosamide", "assay_type": "cell-based", "conditions": "10 nM", "experimental": "Now referring to FIG. 8, In vitro model of […] incubated with or without Cisplatin and 10 nM of Niclosamide. Cells were maintained in culture with the aid of Matrigel as previously described in Kelley and Driver, Curr. Protoc. Neurosci. Ch.(4); Unit(4); 34.1-10 (2010). After cells had been in culture for 1 d, growth medium DMEM (12430-054; GIB CO Life Technologies, with 1% FBS [16000-044; GIB CO Life Technologies] and 50 μg/ml ampicillin) with or without test compounds may be added for preincubation for 1 hr. at 37° C. in 5% Co2, and may be followed by incubation with 50 μM Cisplatin (479306; Sigma-Aldrich) with or without the test compound in growth medium for 24 hr. at 37° C. A Cisplatin concentration of 50 μM may be used for the explant assay due to its consistent showing of decreases outer hair cells by about −40% in the mouse cochlea after 24 hours. Cochlea may be fixed in 4% PFA and stained for actin with Alex Fluor 568 phalloidin to determine the viability of the HCs. Cochlea may also be stained by DAPI, FM1-43 dye uptake, and immunohistochemical staining for known HC markers (including parvalbumin and myosin 7a. Cochlea may be imaged by confocal microscopy. Two 160-μm regions from middle turns may be photographed, and the number of intact HCs can be counted."}, "ggcsh": {"system": "ggcsh", "assay": "Expression of nrf2 downstream gene ggcsh in zebrafish", "assay_type": "in vivo", "conditions": "0.002-1.48 μM, 6 hours", "experimental": "Additionally to FIGS. 6A-6B, but not shown, 5 dpf zebrafish were incubated for 6 hours with vehicle, niclosamide (2 nM to 1.48 μM) and the nrf2 pathway activator […] (DEM) as a positive control, in order to evaluate the effect of niclosamide on ggcsh, a nrf2 downstream target. Ggcsh was previously validated as a Nrf2 downstream target in zebrafish. (Sheets, 2017). Following incubation, the total RNA was isolated from whole fish and processed to measure the induced expression of nrf2 downstream gene ggcsh. […] Additionally, Nrf2a morpholinos morphlinos were prepared, followed by incubation of the zebrafish morphants with cisplatin and/or niclosamide. Zebrafish eggs were injected with 4.5 ng of scrambled morpholino or nrf2a morpholino (5′-[…] SEQ NO: 1). At 3 dpf non-injected and morphant animals were exposed to vehicle, cisplatin (300 μM), cisplatin+niclosamide 18.3 nM or niclosamide alone for 6 hours. Following 1-hour recovery, animals were fixed and processed for immunohistochemistry. Nrf2a KD was confirmed by analyzing expression of Glutathione S-transferase P1 (gstp1), a downstream target, due to lack of proper antibody to detect Nrf2 protein in zebrafish."}}}
{"molecule": "O=C(Nc1ccc([N+](=O)[O-])cc1Cl)c1cc(Cl)ccc1O", "note": "[Niclosamide, 5-chloro-N-(2-chloro-4-nitrophenyl)-2-hydroxy-benzamide]", "values": [{"measurement": "noise-induced ABR threshold shifts versus noise exposed group", "setting": "FVB/NJ mice; 8 kHz to 63 kHz, Day 14, 10 mg/kg IP", "value": "lower threshold shifts"}, {"measurement": "synaptic ribbon (CtBP2) survival versus saline-noise group", "setting": "FVB/NJ mice; 16 kHz", "value": "more synaptic ribbon survival"}, {"measurement": "proportion of surviving OHCs versus saline-noise animals", "setting": "FVB/NJ mice; 32 kHz", "value": "similar"}, {"measurement": "wave-I amplitudes versus noise-exposed group", "setting": "FVB/NJ mice; 80 and 90 dB SPL, Day 15", "value": "higher amplitudes"}, {"measurement": "wave-I amplitude (cochlear nerve activity) versus age-matched controls", "setting": "FVB/NJ mice; Day 15", "value": "comparable to aged matched controls"}, {"measurement": "DPOAE amplitudes versus noise-saline group", "setting": "FVB/NJ mice; day-15 post-noise exposure", "value": "significantly higher"}, {"measurement": "effect on Cisplatin-tumor killing activity", "setting": "A549", "value": "did not affect Cisplatin-tumor killing activity"}, {"measurement": "expression of ggcsh", "setting": "ggcsh", "value": "significantly lowered"}]}
